The text below walks through data of PubChem BioAssay (NCI).

Values joined by “and” are separate entries in the source; they are usually repeats but may differ in a detail not shown here. Identical values can stand only once.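 Grown in 96-well plates, cells were treated for 48 hours with each compound at five concentrations. Insufficient inhibition: endpoint recorded as highest concentration tested. Abbreviation: GI50, concentration required for 50% inhibition of growth. Definition used: TGI = concentration required for complete inhibition of growth.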 Bounds are passed on as bounds.

Holding throughout (experiment): NCI tumour cell line growth inhibition, 48 h
Assay [1] has as its system SK-OV-3 ovarian.
Assay [2] deals with CAKI-1 renal.
The subject of assay [3] is HCT-116 colon.
The test system of assay [4] is UO-31 renal.
The subject of assay [5] is OVCAR-5 ovarian.
Assay [6] relates to OVCAR-4 ovarian.
Assay [7] relates to NCI/ADR-RES ovarian.
The subject of assay [8] is A549 NSCLC.

For the compound `COc1cc(C2=NOC(c3cc(OC)c(OC)c(OC)c3)C2)ccc1OCCCCOc1cc2c(cc1OC)C(=O)N1CCC[C@H]1C=N2` (some centres not stated), the GI50 in assay [1] was 0.446 µM; in assay [2] it was 0.245 µM; in assay [3], 0.216 µM; in assay [4], 0.239 µM; in assay [5], 0.4 µM; in assay [6], 0.439 µM. For the same compound, the GI50 in assay [7] is 2.82 µM; in assay [8] it was 0.348 µM. Besides, the TGI in assay [1] turned out to be 3.81 µM; in assay [2], 0.631 µM; in assay [3], 0.575 µM; in assay [4] it was 0.745 µM; in assay [5], 1.26 µM; in assay [6], 8.64 µM. In addition, the TGI in assay [7] is 9.35 µM; in assay [8], 11.9 µM.

As to `Oc1ccc(NCc2nc3ccccc3[nH]2)cc1`, the GI50 is 32.1 µM in assay [1]; over 100 µM in assay [2]; 41.8 µM in assay [3]; over 100 µM in assay [4]; over 100 µM in assay [5]; 28.7 µM in assay [6]. The GI50 in assay [7] is over 100 µM; in assay [8], 51.6 µM. Besides, the TGI in assay [1], in assay [2], in assay [3], in assay [4], in assay [5] and in assay [6] was over 100 µM in each case. The TGI in assay [7] and in assay [8] was over 100 µM in each case.

For the compound `NC(=O)c1ccc(I)c(N)c1`, the GI50 in assay [1], in assay [2], in assay [3], in assay [4], in assay [5] and in assay [6] was over 100 µM throughout. Further, the GI50 in assay [7] and in assay [8] was over 100 µM each time. Moreover, the TGI in assay [1], in assay [2], in assay [3], in assay [4], in assay [5] and in assay [6] was over 100 µM in each case. Also, the TGI in assay [7] and in assay [8] was over 100 µM throughout.

As for `CCOc1cc2c(Cl)ncnc2c(OCC)c1OCC`, the GI50 is 16.5 µM in assay [1]; 1.56 µM in assay [2]; 3.39 µM in assay [3]; 8.45 µM in assay [4]; 17.9 µM in assay [5]; 13 µM in assay [6]. Besides, the figures for the GI50 in assay [7] and in assay [8] were 25.6 µM and 24.6 µM, respectively. The TGI in assay [1] stood at 30.5 µM; in assay [2] it was 3.03 µM; in assay [3], 11.9 µM; in assay [4], 23.6 µM; in assay [5], 33.4 µM; in assay [6] it was 27.7 µM. For the same compound, the TGI in assay [7] is over 64.3 µM; in assay [8], over 79.8 µM.

Turning to `CS(=O)(=O)c1ccc([C@H]2O[C@@H](CO)C[C@]2(O)c2ccc(S(C)(=O)=O)cc2)cc1`, the GI50 in assay [1], in assay [2], in assay [3], in assay [4], in assay [5] and in assay [6] was over 100 µM throughout. The GI50 in assay [7] and in assay [8] was over 100 µM in each case. Also, the TGI in assay [1], in assay [2], in assay [3], in assay [4], in assay [5] and in assay [6] was over 100 µM each time. Further, the TGI in assay [7] and in assay [8] was over 100 µM throughout.

`C=C1C(=O)O[C@H]2[C@H]1CC/C(COC(=O)c1ccc3ccccc3c1)=C\CC[C@@]1(C)O[C@@H]21`: the GI50 in assay [1] was 3.51 µM; in assay [2], 1.22 µM; in assay [3], 0.379 µM; in assay [4], 0.859 µM; in assay [5] it was 1.59 µM; in assay [6] it was 1.52 µM. In addition, the GI50 in assay [7] was 2.32 µM; in assay [8] it was 1.59 µM. In addition, the TGI came out at 10.8 µM in assay [1]; 2.46 µM in assay [2]; 1.6 µM in assay [3]; 2.11 µM in assay [4]; 3.57 µM in assay [5]; 3.32 µM in assay [6]. For the same compound, the values for the TGI in assay [7] and in assay [8] were 10.2 µM and 3.43 µM, respectively.

`Cn1c(=O)c2[nH]c(SCc3ccccn3)nc2n(C)c1=S`: the TGI in assay [1] is 66.4 µM; in assay [2], over 100 µM; in assay [3], over 100 µM; in assay [4], over 100 µM; in assay [5] it was over 100 µM; in assay [6], over 100 µM. Also, the TGI in assay [7] and in assay [8] was over 100 µM each time.

`Cc1ccc2c(c1)[n+]([O-])c(N)n[n+]2[O-]`: the TGI in assay [1], in assay [2], in assay [3], in assay [4], in assay [5] and in assay [6] was over 100 µM each time. Besides, the TGI in assay [7] and in assay [8] was over 100 µM in each case.

For the compound `COc1ccc(-c2cc(=O)c3ccc(O)cc3o2)cc1OC`, the TGI in assay [1], in assay [2], in assay [3], in assay [5], in assay [6] and in assay [7] was over 100 µM throughout. The TGI in assay [8] was over 100 µM.

`COc1cc2c(c(O)c1Br)C(=O)c1c(O)cc(C[C@H](C)O)cc1[C@H]2[C@H]1c2cc(C[C@H](C)O)cc(O)c2C(=O)c2c1cc(OC)c(Br)c2O`: the GI50 in assay [1] is 11.6 µM and 24.3 µM; in assay [2], 10.6 µM and 28.4 µM; in assay [3], 3.77 µM and 5.49 µM; in assay [4], 7.52 µM and 15.4 µM; in assay [5] it was 11.1 µM and 17.1 µM; in assay [6], 11.1 µM and 25 µM. The GI50 in assay [7] is 17.5 µM and 28.5 µM; in assay [8] it was 10.1 µM and 20.9 µM. For the same compound, the TGI in assay [1] was 47.1 µM and 89.8 µM; in assay [2], 33.3 µM and 94.6 µM; in assay [3], 67.5 µM and 63.1 µM; in assay [4], 15.9 µM and 29.8 µM; in assay [5], 27.4 µM and 46.5 µM; in assay [6], 67.5 µM and 98.1 µM. The TGI in assay [7] was 59.9 µM and > 100 µM; in assay [8], 32.9 µM and > 100 µM.

As to `CC(C)(CC(=O)Nc1ccccc1)C(=O)O`, the TGI in assay [1], in assay [2], in assay [3], in assay [4], in assay [5] and in assay [6] was over 100 µM throughout. The TGI in assay [7] and in assay [8] was over 100 µM in each case.

`Cn1c2ccccc2c2c(-c3ccccc3)[n+]3ccncc3nc21`: the GI50 in assay [1], in assay [2], in assay [3], in assay [4], in assay [5] and in assay [6] was over 100 µM in each case. Further, the GI50 in assay [7] and in assay [8] was over 100 µM throughout. For the same compound, the TGI in assay [1], in assay [2], in assay [3], in assay [4], in assay [5] and in assay [6] was over 100 µM each time. The TGI in assay [7] and in assay [8] was over 100 µM in each case.

For the compound `COc1cc([N+](=O)[O-])cc2c3c(n(C)c12)[C@@]1(C)CCC2c4ccc(OCc5ccccc5)cc4CCC2C1C3` (some centres not stated), the GI50 in assay [1] is 54.5 µM; in assay [2], 86.6 µM; in assay [3], 78.5 µM; in assay [4], over 100 µM; in assay [5], over 100 µM; in assay [6], 61.6 µM. Moreover, the GI50 in assay [7] is over 100 µM; in assay [8], 72.2 µM. The TGI in assay [1], in assay [2], in assay [3], in assay [4], in assay [5] and in assay [6] was over 100 µM throughout. The TGI in assay [7] and in assay [8] was over 100 µM each time.

As to `CC(=O)OC[C@]1(C)C=C2C(=O)[C@](C)(O)C3(CC3)C(C)=C2[C@H]1O`, the GI50 was 0.194 µM in assay [1]; 0.041 µM in assay [2]; 0.0321 µM in assay [3]; 0.114 µM in assay [4]; 0.0666 µM in assay [5]; 0.094 µM in assay [6]. In addition, the GI50 in assay [7] is 0.0772 µM; in assay [8], 0.172 µM. Further, the TGI in assay [1] was 1.11 µM; in assay [2], 2.58 µM; in assay [3], over 100 µM; in assay [4] it was 0.273 µM; in assay [5], 0.506 µM; in assay [6] it was 0.649 µM. The TGI in assay [7] turned out to be 0.804 µM; in assay [8], 2.8 µM.

In the case of `Oc1ccc2ccccc2c1N=Nc1nccs1`, the GI50 was 1.98 µM in assay [1]; 0.323 µM in assay [2]; 0.213 µM in assay [3]; 0.216 µM in assay [4]; 5.61 µM in assay [5]; 0.457 µM in assay [6]. The GI50 in assay [7] is 0.393 µM; in assay [8], 6.18 µM. The TGI in assay [1] was 41.2 µM; in assay [2] it was 11.6 µM; in assay [3], 6.09 µM; in assay [4], 11.9 µM; in assay [5], 25.6 µM; in assay [6], 16.8 µM. Besides, in assay [8], the TGI is over 53.4 µM.

In the case of `COc1cc(C2=C(c3ccccc3)COC2=O)cc(OC)c1OC`, the GI50 in assay [1] was 4.56 µM; in assay [2], 0.585 µM; in assay [3], 2.29 µM; in assay [4], 7.77 µM; in assay [5], 4.84 µM; in assay [6], 38.9 µM. For the same compound, in assay [8], the GI50 is 6.78 µM. Also, the TGI in assay [1] is over 100 µM; in assay [2], over 27.7 µM; in assay [3], over 38.1 µM; in assay [4] it was over 49.9 µM; in assay [5] it was over 100 µM; in assay [6] it was over 100 µM. This compound also gave a TGI in assay [8] of over 58.7 µM.

In the case of `COc1ccc(-c2cnnc3c(-c4cccc(C(F)(F)F)c4)cnn23)cc1`, the GI50 was 3.5 µM in assay [1]; 3.3 µM in assay [2]; 3.46 µM in assay [3]; over 100 µM in assay [5]; 3.05 µM in assay [7]; 4.19 µM in assay [8]. Moreover, the TGI in assay [1], in assay [2], in assay [3], in assay [5], in assay [7] and in assay [8] was over 100 µM in each case.

As for `CC1=CC(=Nc2ccc(N(CCCl)CCCl)cc2)C=C(C)C1=O`, the GI50 was 3.21 µM in assay [1]; 0.116 µM in assay [2]; 0.935 µM in assay [3]; 2.72 µM in assay [5]; 1.56 µM in assay [6]; 1.09 µM in assay [7]. The GI50 in assay [8] is 1.61 µM. For the same compound, the TGI in assay [1] amounted to 23 µM; in assay [2], 1.08 µM; in assay [3] it was 2.38 µM; in assay [5], 11.3 µM; in assay [6], 4.76 µM; in assay [7], 10.1 µM. This compound displayed a TGI in assay [8] of 24 µM.

For the compound `COc1ccc(NC2=CC(=O)C(=O)c3ccccc32)nn1`, the TGI in assay [1] was 9.41 µM; in assay [2], 6.24 µM; in assay [4], 11.8 µM; in assay [5], 3.45 µM; in assay [6] it was 2.79 µM; in assay [7], 3.65 µM. Also, in assay [8], the TGI stood at 31.2 µM.

Regarding `COc1ccc(/C=C/c2nccc3ccccc23)cc1OC`, the TGI in assay [1], in assay [2], in assay [3], in assay [5], in assay [6] and in assay [7] was over 10 µM each time. This compound displayed a TGI in assay [8] of over 10 µM.

Consider `COc1ccc(/C(COc2c(-c3ccccc3)oc3ccccc3c2=O)=N\O)cc1`, for which the GI50 was 16.9 µM in assay [1]; 21.8 µM in assay [3]; 41.4 µM in assay [4]; 37.1 µM in assay [6]; 11.4 µM in assay [7]; 23.2 µM in assay [8]. Moreover, the TGI in assay [1] was over 50 µM; in assay [3] it was over 50 µM; in assay [4] it was over 50 µM; in assay [6] it was over 50 µM; in assay [7] it was 39.6 µM; in assay [8] it was over 50 µM.
